Read-outs that look alike come from different tables or passages of the source.
Assays:
HEK293 cells = assay: Single-cell FRET control, HEK293 cells expressing pmEpac2 alone; settings: no RXFP1, relaxin 1 nM
RXFP1 [1] = target: T1, RXFP1 (Homo sapiens, UniProt Q9HBX9); assay: Single-cell FRET cAMP; settings: HeLa, forskolin 1 μM, without PTX, glEpac2
T1 sequence (Q9HBX9 1-757): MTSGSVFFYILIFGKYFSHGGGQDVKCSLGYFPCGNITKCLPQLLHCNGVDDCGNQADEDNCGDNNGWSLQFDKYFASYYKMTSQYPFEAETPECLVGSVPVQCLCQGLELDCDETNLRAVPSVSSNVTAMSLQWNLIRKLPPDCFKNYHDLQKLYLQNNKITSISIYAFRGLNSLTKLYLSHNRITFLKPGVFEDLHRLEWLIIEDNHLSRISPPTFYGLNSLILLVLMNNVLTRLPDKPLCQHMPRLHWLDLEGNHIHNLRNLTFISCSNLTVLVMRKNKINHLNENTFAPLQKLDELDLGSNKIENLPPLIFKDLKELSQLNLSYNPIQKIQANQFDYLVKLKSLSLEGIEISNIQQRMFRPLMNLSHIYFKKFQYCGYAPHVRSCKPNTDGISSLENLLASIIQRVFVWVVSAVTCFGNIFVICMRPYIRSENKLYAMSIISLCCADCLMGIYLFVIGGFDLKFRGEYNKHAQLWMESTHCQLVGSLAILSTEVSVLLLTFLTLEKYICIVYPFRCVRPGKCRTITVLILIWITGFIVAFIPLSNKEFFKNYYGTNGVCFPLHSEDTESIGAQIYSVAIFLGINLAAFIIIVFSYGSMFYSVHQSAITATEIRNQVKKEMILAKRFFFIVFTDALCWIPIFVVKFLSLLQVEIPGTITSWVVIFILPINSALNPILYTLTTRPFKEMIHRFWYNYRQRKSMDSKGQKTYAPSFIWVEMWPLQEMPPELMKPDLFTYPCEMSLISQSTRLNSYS

tRXFP1-747 = assay: Single-cell FRET cAMP; settings: tRXFP1-747, glEpac2
RXFP2/1 = assay: Single-cell FRET cAMP
Chain of RXFP2/1 (Q8WXD0 44-397 limits assumed, one chain of several): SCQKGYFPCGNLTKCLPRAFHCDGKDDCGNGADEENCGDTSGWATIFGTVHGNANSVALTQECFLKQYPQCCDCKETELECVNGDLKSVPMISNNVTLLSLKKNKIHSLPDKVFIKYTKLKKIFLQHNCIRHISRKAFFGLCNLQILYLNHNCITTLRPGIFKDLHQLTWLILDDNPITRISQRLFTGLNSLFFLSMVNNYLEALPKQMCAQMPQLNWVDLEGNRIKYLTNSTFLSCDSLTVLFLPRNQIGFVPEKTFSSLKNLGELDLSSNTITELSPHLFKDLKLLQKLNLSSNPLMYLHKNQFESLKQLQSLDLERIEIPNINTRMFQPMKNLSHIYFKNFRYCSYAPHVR

[2] = system: PDE4D3 / RXFP1 signalosome; assay: PDE4D3; settings: 5 min, n=3
[3] = system: AC2-HA / RXFP1 signalosome; assay: AC2-HA co-immunoprecipitation from HEK293 cells co-expressing FLAG-RXFP1; settings: 5 min, n=3
RXFP1 [4] = target: T2, RXFP1 (Rattus norvegicus, UniProt Q6R6I6); assay: Single-cell FRET cAMP; settings: rat cardiac fibroblasts, forskolin 1 μM, without PTX
T2 sequence (Q6R6I6 1-758): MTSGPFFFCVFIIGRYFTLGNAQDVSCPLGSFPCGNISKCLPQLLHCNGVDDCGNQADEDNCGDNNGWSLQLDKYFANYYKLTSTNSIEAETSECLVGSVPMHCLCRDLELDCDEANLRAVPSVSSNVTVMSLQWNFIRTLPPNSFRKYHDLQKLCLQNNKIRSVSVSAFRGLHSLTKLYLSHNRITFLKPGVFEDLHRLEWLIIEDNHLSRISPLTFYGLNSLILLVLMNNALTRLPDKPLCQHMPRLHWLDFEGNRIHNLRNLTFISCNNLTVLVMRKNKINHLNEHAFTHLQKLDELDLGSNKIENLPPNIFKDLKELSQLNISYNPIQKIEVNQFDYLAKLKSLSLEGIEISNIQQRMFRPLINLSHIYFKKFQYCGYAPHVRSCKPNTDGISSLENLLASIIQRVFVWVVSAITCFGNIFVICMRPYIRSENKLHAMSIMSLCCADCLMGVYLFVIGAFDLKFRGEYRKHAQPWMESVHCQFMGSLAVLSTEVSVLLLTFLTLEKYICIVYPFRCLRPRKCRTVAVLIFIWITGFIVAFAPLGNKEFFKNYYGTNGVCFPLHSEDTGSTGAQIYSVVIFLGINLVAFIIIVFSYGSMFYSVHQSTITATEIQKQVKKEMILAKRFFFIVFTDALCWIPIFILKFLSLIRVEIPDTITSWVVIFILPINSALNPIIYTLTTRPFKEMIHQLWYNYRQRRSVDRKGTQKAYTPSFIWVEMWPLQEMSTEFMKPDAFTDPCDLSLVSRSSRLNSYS

RXFP2 [5] = target: T3, RXFP2 (Homo sapiens, UniProt Q8WXD0); assay: Single-cell FRET cAMP; settings: read-out: Relaxin EC50 2; glEpac2, HEK293-RXFP2; 5 min AUC; mean±s.e.m.
T3 sequence (Q8WXD0 whole entry, species assumed): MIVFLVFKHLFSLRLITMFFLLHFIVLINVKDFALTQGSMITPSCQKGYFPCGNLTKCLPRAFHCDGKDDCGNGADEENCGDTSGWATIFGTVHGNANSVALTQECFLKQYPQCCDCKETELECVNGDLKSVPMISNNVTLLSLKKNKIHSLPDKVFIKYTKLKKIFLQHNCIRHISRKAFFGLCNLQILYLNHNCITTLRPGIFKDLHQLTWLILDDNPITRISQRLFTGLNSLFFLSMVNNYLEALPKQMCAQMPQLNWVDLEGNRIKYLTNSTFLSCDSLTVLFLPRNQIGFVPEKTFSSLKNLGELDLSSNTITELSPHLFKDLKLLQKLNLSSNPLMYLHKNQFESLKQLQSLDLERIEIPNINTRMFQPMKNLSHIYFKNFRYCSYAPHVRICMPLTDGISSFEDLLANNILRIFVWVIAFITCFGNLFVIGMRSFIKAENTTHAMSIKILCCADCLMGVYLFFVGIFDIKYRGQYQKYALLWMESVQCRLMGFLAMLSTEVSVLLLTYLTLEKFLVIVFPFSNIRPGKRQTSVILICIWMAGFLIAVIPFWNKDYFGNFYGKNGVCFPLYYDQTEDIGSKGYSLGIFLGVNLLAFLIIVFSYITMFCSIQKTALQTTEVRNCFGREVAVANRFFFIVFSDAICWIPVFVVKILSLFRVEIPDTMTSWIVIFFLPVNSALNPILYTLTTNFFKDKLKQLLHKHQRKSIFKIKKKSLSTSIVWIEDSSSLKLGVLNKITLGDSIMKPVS

RXFP1 [6] = target: T1, RXFP1; assay: Single-cell FRET cAMP; settings: first phase, biphasic fit, 5 min AUC, glEpac2, HEK293-RXFP1; mean±s.e.m.
RXFP1 [7] = target: T1, RXFP1; assay: Single-cell FRET cAMP
RXFP1 [8] = system: RXFP1
tRXFP1-703 = assay: Single-cell FRET cAMP
RXFP1 S755A = assay: Single-cell FRET cAMP; settings: glEpac2
RXFP2 [9] = target: T3, RXFP2; assay: Single-cell FRET cAMP
RXFP1/2 = assay: Single-cell FRET cAMP; settings: relaxin 10 aM–100 μM, RXFP1/2, pmEpac2

## Relaxin
HEK293 cells
  cAMP response: no detectable cAMP response
RXFP1 [1]
  cAMP response to relaxin: significant concentration-dependent increase in cAMP, which was maintained within the classical relaxin concentration range
tRXFP1-747
  cAMP response to sub-picomolar relaxin, effect of mutation: no effect
  maximal cAMP response to relaxin: reduced through tRXFP1-747
RXFP2/1; RXFP2/1, pmEpac2
  cAMP accumulation at sub-picomolar concentrations: increased cAMP accumulation at sub-picomolar concentrations
RXFP2/1; first phase, pmEpac2, RXFP2/1 (RXFP2-ectodomain, RXFP1-transmembrane/C-terminus), mean±s.e.m.
  Relaxin EC50 1: 7.86±1.30 aM
RXFP2/1; read-out: Relaxin EC50 2, second phase, pmEpac2, RXFP2/1, mean±s.e.m.
  EC50: 0.33 ± 0.08 nM
RXFP2/1; relaxin 10 aM–100 μM, RXFP2/1, pmEpac2
  biphasic cAMP response: a biphasic response was evident
[2]; relaxin 10 nM
  association of PDE4D3 with RXFP1 / regulatory sub-complex: reduces the association between RXFP1 and PDE4D3 or AC2
[2]; relaxin 10 fM
  association of PDE4D3 with RXFP1 / regulatory sub-complex: not 10 fM
[3]; relaxin 10 nM
  association of AC2 with RXFP1 / stimulatory sub-complex: reduces the association between RXFP1 and PDE4D3 or AC2
[3]; relaxin 10 fM
  association of AC2 with RXFP1 / stimulatory sub-complex: not 10 fM
RXFP1 [4]
  cAMP response to sub-picomolar relaxin: significant increase in cAMP, which then declined within the classical concentration range
RXFP2 [5]
  EC50: 57.7 ± 6.94 nM
RXFP1 [6]
  Relaxin EC50 1: 140.34±20.73 aM
RXFP1 [7]; first phase, biphasic fit, 5 min AUC, pmEpac2, HEK293-RXFP1, mean±s.e.m.
  Relaxin EC50 1: 10.93±0.92 aM
RXFP1 [7]; maximal relaxin 100 nM versus FIP (10 μM forskolin, 100 μM IBMX, 100 nM PGE1)
  saturation of pmEpac2 sensor / response relative to FIP: did not saturate the pmEpac2 sensor
RXFP1 [8]
  cAMP response: no detectable cAMP response
tRXFP1-703; tRXFP1-703 (truncated following helix 8), glEpac2
  response to sub-picomolar relaxin: remained responsive to stimulation with sub-picomolar concentrations of relaxin
tRXFP1-703; tRXFP1-703, glEpac2
  maximal cAMP response to relaxin: reduced following truncation
RXFP1 S755A
  cAMP response to sub-picomolar relaxin, effect of mutation: no effect
RXFP2 [9]; RXFP2, pmEpac2
  cellular response to sub-picomolar peptide: no evidence of a cellular response
RXFP2 [9]; read-out: Relaxin EC50 2, pmEpac2, HEK293-RXFP2, 5 min AUC, mean±s.e.m.
  EC50: 18.1 ± 3.84 nM
RXFP1/2
  biphasic cAMP response: not RXFP1/2

— paper PMC2924647 (The EMBO Journal, 2010)
